pIC50: −log10 of the molar value.
Columns and labels:
[1] = tested on: MCF7; assay: Inhibition of cell migration of human MCF7 cells assessed as relative distance between the edges of the wound at 4 uM incubated for 12 hrs by wound healing assay (reference value: 87.55%); format: functional; set-up: scale not given: the % may be the effect or the level left
[2] = tested on: MCF7; assay: Induction of apoptosis in human MCF7 cells at 4 uM by Annexin V-FITC/PI double staining based flow cytometry analysis; format: functional, cell-based; conditions: TDE = time-dependent effect
[3] = biological target: Vascular endothelial growth factor receptor 2 (Homo sapiens, UniProt P35968); assay: Inhibition of VEGFR2 (unknown origin) incubated for 30 mins by enzyme immunoassay
[4] = tested on: A549; assay: Antiproliferative activity against human A549 cells assessed as inhibition of cell proliferation incubated for 48 hrs by MTT assay; format: functional, cell-based; conditions: A549, 48 h
[5] = Cytotoxicity in HEK293T cells assessed as reduction in cell viability incubated for 48 hrs by MTT assay; format: cell-based, HEK-293T; conditions: human
[6] = tested on: MCF7; assay: Induction of apoptosis in human MCF7 cells assessed as late necrotic cells level at 2 uM incubated for 24 hrs by Annexin V-FITC/PI double staining based flow cytometry analysis (reference value: 1.49%); format: functional
[7] = tested on: MCF7; assay: Induction of apoptosis in human MCF7 cells assessed as late necrotic cells level at 8 uM incubated for 24 hrs by Annexin V-FITC/PI double staining based flow cytometry analysis (reference value: 1.49%); format: functional
[8] = tested on: MCF7; assay: Induction of apoptosis in human MCF7 cells assessed as late apoptotic cells level at 4 uM incubated for 12 hrs by Annexin V-FITC/PI double staining based flow cytometry analysis (reference value: 3.1%); format: functional
[9] = tested on: MCF7; assay: Induction of apoptosis in human MCF7 cells assessed as late necrotic cells level at 4 uM incubated for 24 hrs by Annexin V-FITC/PI double staining based flow cytometry analysis (reference value: 6.88%); format: functional
[10] = tested on: MCF7; assay: Suppression of mitochondrial membrane potential in human MCF7 cells assessed as green fluorescent cells level at 8 uM incubated for 12 hrs by rhodamine-123 dye based flow cytometry analysis (reference value: 0.29%); format: functional

Vascular endothelial growth factor receptor 2, sequence (P35968 whole entry): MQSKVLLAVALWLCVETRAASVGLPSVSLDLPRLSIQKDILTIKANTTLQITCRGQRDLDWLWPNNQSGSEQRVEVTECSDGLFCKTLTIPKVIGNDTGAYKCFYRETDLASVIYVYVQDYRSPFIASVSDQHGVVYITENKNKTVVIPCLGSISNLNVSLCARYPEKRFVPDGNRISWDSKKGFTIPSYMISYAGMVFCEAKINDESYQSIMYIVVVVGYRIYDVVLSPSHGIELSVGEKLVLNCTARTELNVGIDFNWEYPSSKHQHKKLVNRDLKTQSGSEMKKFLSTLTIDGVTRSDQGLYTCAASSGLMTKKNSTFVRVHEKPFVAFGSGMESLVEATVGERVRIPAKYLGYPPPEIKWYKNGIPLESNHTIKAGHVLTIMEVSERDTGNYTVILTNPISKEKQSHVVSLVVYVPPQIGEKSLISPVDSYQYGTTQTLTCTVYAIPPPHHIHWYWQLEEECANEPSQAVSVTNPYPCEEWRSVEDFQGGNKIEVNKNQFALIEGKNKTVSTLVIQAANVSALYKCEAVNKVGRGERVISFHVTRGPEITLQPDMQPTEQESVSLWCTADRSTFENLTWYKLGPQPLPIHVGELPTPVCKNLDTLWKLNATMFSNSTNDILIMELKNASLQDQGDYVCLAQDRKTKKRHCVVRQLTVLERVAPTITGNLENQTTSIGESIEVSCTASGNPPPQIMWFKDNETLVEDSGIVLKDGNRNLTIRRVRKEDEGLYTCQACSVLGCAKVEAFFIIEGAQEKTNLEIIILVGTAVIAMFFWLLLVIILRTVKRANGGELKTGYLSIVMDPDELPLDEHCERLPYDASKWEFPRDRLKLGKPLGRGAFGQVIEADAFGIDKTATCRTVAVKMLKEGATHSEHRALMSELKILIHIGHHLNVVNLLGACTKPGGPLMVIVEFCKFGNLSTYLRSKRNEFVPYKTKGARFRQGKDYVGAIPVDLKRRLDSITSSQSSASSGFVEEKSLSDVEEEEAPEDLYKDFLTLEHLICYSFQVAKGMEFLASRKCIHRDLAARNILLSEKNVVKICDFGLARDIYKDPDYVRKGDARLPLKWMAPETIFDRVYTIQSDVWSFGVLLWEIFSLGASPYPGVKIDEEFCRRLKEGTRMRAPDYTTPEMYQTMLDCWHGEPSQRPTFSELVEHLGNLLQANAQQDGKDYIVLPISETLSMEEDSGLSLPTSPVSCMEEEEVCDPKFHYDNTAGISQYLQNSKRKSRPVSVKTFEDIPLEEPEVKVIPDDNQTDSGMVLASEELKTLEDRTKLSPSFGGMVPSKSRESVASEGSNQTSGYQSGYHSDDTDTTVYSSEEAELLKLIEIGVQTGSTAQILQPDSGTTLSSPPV

With Cc1ccc(-n2cc(NC(=O)c3cccc(NS(=O)(=O)c4ccc(Cl)cc4)c3)cn2)cc1 the Activity [1] was 90.9%, the Activity [2] was “Tde” and the pIC50 [3] was 6.47. For the same compound, the pIC50 [4] was 4.81, the CC50 at 48 h [5] was 110 µM and the Activity [6] was 2.32%. For the same compound, the Activity [7] was 3.76%, the Activity [8] was 11.3% and the Activity [9] was 1.14%. It also gave an Activity [10] of 37.15%.

— ChEMBL document CHEMBL4385653, “Design, synthesis, biological evaluation of benzoyl amide derivatives containing nitrogen heterocyclic ring as potential VEGFR-2 inhibitors” (Bioorg Med Chem, 2019)
